In paper PMC13104648 (Acta Pharmaceutica Sinica. B, 2025):

Columns and labels:
Sprague–Dawley rats = test: Arterial blood pressure in anesthetized rats; settings: 55 nmol/kg i.v.
318 distinct 7TMRs = test: PRESTO-Tango GPCRome panel; type: cell-based, human; settings: 10 μmol/L
rats = settings: chronic neuropathic and inflammatory pain paradigms; cited from earlier work
CHO-hNTSR1 cells = test: Electric cell-substrate impedance sensing; type: cell-based, Chinese hamster; settings: 10 μmol/L; for maximum change factor (normalized resistance): 4000 Hz, n = 3 in duplicate
NTSR1 (β-arrestin 2) = NTSR1 (β-arrestin 2) (Homo sapiens, UniProt P30989); test: BRET^2 βarr recruitment, allosteric modulator assay; type: cell-based; settings: pre-treatment up to 100 μmol/L
Sequence of NTSR1 (β-arrestin 2) (P30989 whole entry): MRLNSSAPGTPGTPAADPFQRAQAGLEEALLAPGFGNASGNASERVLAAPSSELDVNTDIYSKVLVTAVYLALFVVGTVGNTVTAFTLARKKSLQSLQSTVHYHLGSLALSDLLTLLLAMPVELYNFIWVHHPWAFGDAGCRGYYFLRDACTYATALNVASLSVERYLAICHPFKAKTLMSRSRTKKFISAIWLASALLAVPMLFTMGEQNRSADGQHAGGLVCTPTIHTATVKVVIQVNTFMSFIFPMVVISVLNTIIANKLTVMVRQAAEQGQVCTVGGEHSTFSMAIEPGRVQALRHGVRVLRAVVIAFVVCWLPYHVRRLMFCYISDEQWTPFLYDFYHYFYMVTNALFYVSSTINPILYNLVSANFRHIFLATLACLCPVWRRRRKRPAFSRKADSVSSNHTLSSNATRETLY

NTSR1 (β-arrestin 1) = NTSR1 (β-arrestin 1) (Homo sapiens, UniProt P30989); test: as above; type: cell-based; settings: pre-treatment up to 100 μmol/L
Sequence of NTSR1 (β-arrestin 1) (P30989 whole entry): as above

hNTSR1 (Gα13) = hNTSR1 (Gα13) (Homo sapiens, UniProt P30989); test: BRET^2 G protein dissociation, allosteric modulator assay; type: cell-based; settings: pre-treatment up to 100 μmol/L
Sequence of hNTSR1 (Gα13) (P30989 whole entry): as above

mice = settings: cited from earlier work
[1] = anesthetized male rats, mean ± SEM, n = 5
[2] = anesthetized male rats, mean ± SEM

## CC[C@H](C)[C@H](NC(=O)[C@H](Cc1ccc(O)cc1)NC(=O)[C@@H]1CCCN1C(=O)[C@H](CCCNC(=N)N)NC(=O)[C@@H](N)CCCNC(=N)N)C(=O)N[C@@H](CC(C)C)C(=O)O [NT(8-13), Neurotensin (8-13), reference compound]
Sprague–Dawley rats; [1]
  ΔMABP 20 s post-injection: −29 ± 3 mm Hg
  ΔMABP 75 s post-injection: −7 ± 3 mm Hg
  ΔMABP 200 s post-injection: −28 ± 6 mm Hg

## CCCCCCCCCCCCCCCC(=O)N[C@@H](C)C(=O)N[C@@H](CCCNC(=N)N)C(=O)N[C@@H](CCCCN)C(=O)N[C@@H](CCCCN)C(=O)N[C@@H](CO)C(=O)N[C@@H](CC(C)C)C(=O)N[C@@H](CCC(N)=O)C(=O)N[C@@H](CO)C(=O)N[C@@H](CC(C)C)C(=O)N[C@@H](CCC(N)=O)C(=O)N[C@@H](CO)C(=O)N[C@H](C(=O)N[C@H](C(=O)N[C@@H](Cc1c[nH]cn1)C(N)=O)C(C)C)[C@@H](C)O [PP-001]
318 distinct 7TMRs
  βarr2 recruitment across a panel of 318 distinct 7TMRs: did not induce βarr2 recruitment
Sprague–Dawley rats
  delay in hypotensive response: 40 s
  time of minimum ΔMABP post-injection: 105 s
Sprague–Dawley rats; [2]
  minimum ΔMABP of first decline: −37 ± 4 mm Hg
  ΔMABP 300 s post-injection: −25 ± 3 mm Hg
rats
  reversing nociceptive behaviors: effective in reversing nociceptive behaviors in rats
CHO-hNTSR1 cells
  baseline-to-baseline timeframe: 45 min
  time of maximum change factor post-stimulation: 1110 s
CHO-hNTSR1 cells; mean ± SEM
  maximum change factor (normalized resistance): 1.06 ± 0.01
CHO-hNTSR1 cells; post-stimulation
  time at which the trace intercepts / returns to baseline: 2700 s

## CCCCCCCCCCCCCCCC(=O)O [Palmitate, palmitate]
NTSR1 (β-arrestin 2)
  effect on potency or efficacy of NT, βarr2: not affected
NTSR1 (β-arrestin 1)
  effect on potency or efficacy of NT, βarr1: not affected
hNTSR1 (Gα13)
  effect on potency or efficacy of NT, Gα13: not affected

## COc1ccccc1C1CCN(c2nc(C3(F)CC3)nc3ccc(N(C)CCO)cc23)CC1 [SBI-553]
mice
  hypotension: does not induce hypotension in mice

## CCCCCCCCCCCCCCCC(=O)N[C@@H](C)C(=O)N[C@@H](C)C(=O)N[C@@H](CCCCN)C(=O)N[C@@H](CCCCN)C(=O)N[C@@H](CO)C(=O)N[C@@H](CC(C)C)C(=O)N[C@@H](CCC(N)=O)C(=O)N[C@@H](CO)C(=O)N[C@@H](CC(C)C)C(=O)N[C@@H](CCC(N)=O)C(=O)N[C@@H](CO)C(=O)N[C@H](C(=O)N[C@H](C(=O)N[C@@H](Cc1c[nH]cn1)C(N)=O)C(C)C)[C@@H](C)O [[Ala^2]PP-001]
Sprague–Dawley rats; n = 5
  change to MABP: no change to MABP was observed
CHO-hNTSR1 cells
  resistance response profile: completely inactive

## CCCCCCCCCCCCCCCC(=O)N[C@@H](C)C(=O)N[C@@H](CCCNC(=N)N)C(=O)N[C@@H](CCCCN)C(=O)N[C@@H](CCCCN)C(=O)N[C@@H](CO)C(=O)N[C@@H](CC(C)C)C(=O)N[C@@H](CCC(N)=O)C(=O)N[C@@H](CO)C(=O)N[C@@H](CC(C)C)C(=O)N[C@@H](CCC(N)=O)C(=O)N[C@@H](CO)C(=O)N[C@H](C(=O)N[C@@H](C)C(=O)N[C@@H](Cc1c[nH]cn1)C(N)=O)[C@@H](C)O [[Ala^13]PP-001]
Sprague–Dawley rats
  delay in hypotensive response: 40 s
  time of minimum ΔMABP post-injection: 93 s
  ΔMABP lower than that of PP-001 at 300 s: 19 ± 5 mm Hg
Sprague–Dawley rats; [2]
  minimum ΔMABP of first decline: −36 ± 4 mm Hg
  ΔMABP 300 s post-injection: −44 ± 2 mm Hg
Sprague–Dawley rats; n = 5
  ΔMABP 140 s post-administration: −31 ± 4 mm Hg
CHO-hNTSR1 cells
  time of maximum change factor post-stimulation: 1962 s
CHO-hNTSR1 cells; mean ± SEM
  maximum change factor (normalized resistance): 1.06 ± 0.02
CHO-hNTSR1 cells; mean ± SEM, n = 3
  change factor at 3000 s (50 min) post-stimulation: 1.05 ± 0.03
